Test results taken from US6649565B1, “Selective herbicides on the basis of a substituted phenylsulfonylaminocarbonyltriazolinone and safeners” (Bayer Aktiengesellschaft, priority 1999, dated 2003).

Tests used:
[1] = tested on: barley of the cultivar Coronar; experiment: Post-emergence test/greenhouse, damage to crop plant barley; format: in vivo; conditions: greenhouse, after approx. 18 days
Source text: (§1) The active compounds in question were used in the form of customary formulations. The sodium salt of the compound of the formula (I) was applied as 70 WG or 70 WP, mefenpyr-diethyl was applied as 100 EC and fenchlorazole-ethyl and cloquintocetmexyl were applied as a laboratory formulation of the active compound produced by ourselves. The active compounds and, if appropriate, the safeners were used to prepare an aqueous spray liquor comprising 0.1% of the additive Renex-36.
(§2) The active compound preparation is used to spray test plants which were grown in 10×10 cm pots (growth medium: soil or vermiculte), such that the particular amounts of active compound desired are applied per unit area. The concentration of the spray liquor is chosen such that the particular amounts of active compound desired are applied in […].
(§3) After approximately 18 days the degree of damage to the crop plants was rated in % damage in comparison with the development of the untreated control.
(§4) 0%=no damage (like untreated control)
(§5) 100%=total destruction/damage
(§6) Active compounds, application rates, test plants and results are shown in the tables below, the terms used in the tables having the following meaning:
barley=barley of the cultivar Coronar
(§7) a.i.=active ingredient=active compound/safener

[2] = tested on: wheat of the cultivar Orestis; experiment: Post-emergence test/greenhouse, damage to crop plant wheat; format: in vivo; conditions: greenhouse, after approx. 18 days
Source text: as §1, §2, §3, §4, §5, §6
wheat=wheat of the cultivar Orestis
as §7

CCCOc1nn(C(=O)[N-]S(=O)(=O)c2ccccc2C(=O)OC)c(=O)n1C.[Na+]
Damage barley ([1]; Table A5, 15 g of a.i./ha): 50% | Damage barley ([1]; Table A5, 30 g of a.i./ha): 70% | Damage barley ([1]; Table A5, 60 g of a.i./ha): 70% | Damage barley ([1]; Table A6, 8 g of a.i./ha): 50% | Damage barley ([1]; Table A6, 15 g of a.i./ha): 50% | Damage barley ([1]; Table A6, 30 g of a.i./ha): 60% | Damage barley ([1]; Table A6, 60 g of a.i./ha): 60% | Damage barley ([1]; Table A9, 15 g of a.i./ha): 50% | Damage barley ([1]; Table A9, 30 g of a.i./ha): 70% | Damage barley ([1]; Table A9, 60 g of a.i./ha): 70% | Damage wheat ([2]; Table A1, 90 g of a.i./ha): 20% | Damage wheat ([2]; Table A1, 180 g of a.i./ha): 30% | Damage wheat ([2]; Table A2, 60 g of a.i./ha): 20% | Damage wheat ([2]; Table A2, 125 g of a.i./ha): 30% | Damage wheat ([2]; Table A2, 250 g of a.i./ha): 50% | Damage wheat ([2]; Table A3, 30 g of a.i./ha): 5% | Damage wheat ([2]; Table A3, 60 g of a.i./ha): 10% | Damage wheat ([2]; Table A3, 125 g of a.i./ha): 50% | Damage wheat ([2]; Table A4, 60 g of a.i./ha): 30% | Damage wheat ([2]; Table A4, 125 g of a.i./ha): 40% | Damage wheat ([2]; Table A7, 60 g of a.i./ha): 20% | Damage wheat ([2]; Table A7, 125 g of a.i./ha): 30% | Damage wheat ([2]; Table A7, 250 g of a.i./ha): 50% | Damage wheat ([2]; Table A8, 30 g of a.i./ha): 5% | Damage wheat ([2]; Table A8, 60 g of a.i./ha): 10% | Damage wheat ([2]; Table A8, 125 g of a.i./ha): 50%
